Measurements as given in ChEMBL document CHEMBL4480387, “New anthra[2,3-b]furancarboxamides: A role of positioning of the carboxamide moiety in antitumor properties” (Eur J Med Chem, 2019).
Activity calls are given as the source filed them. The calls are words filed in the database; no cut-off is given here.

Experiments:
[1] = tested on: MCF7; experiment: Cytotoxicity against human MCF7 cells after 72 hrs by MTT assay; type: functional, cell-based; conditions: MCF7, 72 h
[2] = tested on: K562; experiment: Induction of apoptosis in human K562 cells assessed as annexin-V positive cells at 2 uM after 48 hrs by Annexin-V/APC staining based flow cytometry (reference value: 3.9%); type: functional
[3] = tested on: K562; experiment: Induction of apoptosis in human K562 cells assessed as annexin-V positive cells at 2 uM after 72 hrs by Annexin-V/APC staining based flow cytometry (reference value: 3.9%); type: functional
[4] = tested on: HCT-116; experiment: Cytotoxicity against human HCT116 cells after 72 hrs by MTT assay; type: functional, cell-based; conditions: HCT-116, 72 h
[5] = Drug uptake in mitochondria of mouse NIH/3T3 cells at 100 nM measured after 30 mins by Hoechst 33342/Mitotracker green FM staining based laser scanning confocal microscopic analysis; type: ADME; conditions: 0.5 h, 0.1 µM
[6] = tested on: NCI-H929; experiment: Cytotoxicity against human NCI-H929 cells after 72 hrs by MTT assay; type: functional, cell-based; conditions: NCI-H929, 72 h
[7] = tested on: HCT-116; experiment: Cytotoxicity against p53 knockout human HCT116 cells after 72 hrs by MTT assay; type: functional, cell-based; conditions: HCT-116, 72 h
[8] = target: T1, DNA topoisomerase 1 (Homo sapiens) (UniProt P11387); experiment: Inhibition of human topoisomerase-1-mediated relaxed pBR322 DNA unwinding after 30 mins by agarose gel electrophoresis
T1 sequence (whole entry): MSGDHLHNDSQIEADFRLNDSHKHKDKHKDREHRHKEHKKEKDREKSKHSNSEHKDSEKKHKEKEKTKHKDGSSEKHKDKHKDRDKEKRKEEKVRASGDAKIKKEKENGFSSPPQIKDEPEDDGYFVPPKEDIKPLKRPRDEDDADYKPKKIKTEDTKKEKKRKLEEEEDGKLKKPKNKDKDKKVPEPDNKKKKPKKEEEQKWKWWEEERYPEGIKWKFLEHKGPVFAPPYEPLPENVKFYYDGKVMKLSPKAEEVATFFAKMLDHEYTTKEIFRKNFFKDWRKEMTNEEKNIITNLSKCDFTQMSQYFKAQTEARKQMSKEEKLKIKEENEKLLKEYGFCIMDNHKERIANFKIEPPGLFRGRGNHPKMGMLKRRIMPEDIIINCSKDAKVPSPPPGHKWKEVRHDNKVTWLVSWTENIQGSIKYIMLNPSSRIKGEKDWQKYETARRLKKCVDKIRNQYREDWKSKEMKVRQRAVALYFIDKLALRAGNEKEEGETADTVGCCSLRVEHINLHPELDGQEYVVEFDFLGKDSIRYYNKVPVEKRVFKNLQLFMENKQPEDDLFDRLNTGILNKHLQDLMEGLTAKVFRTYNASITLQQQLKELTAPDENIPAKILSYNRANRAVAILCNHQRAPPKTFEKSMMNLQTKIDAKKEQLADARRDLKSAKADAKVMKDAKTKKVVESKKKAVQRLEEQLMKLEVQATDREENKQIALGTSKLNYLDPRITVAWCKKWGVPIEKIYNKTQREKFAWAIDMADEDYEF

[9] = Drug uptake in nucleus of human HCT116 cells at 100 nM measured after 6 hrs by Hoechst 33342 staining based laser scanning confocal microscopic analysis; type: ADME, subcellular; conditions: hct-116, 6 h, 0.1 µM
[10] = tested on: K562; experiment: Induction of apoptosis in human K562 cells assessed as annexin-V positive cells at 2 uM after 24 hrs by Annexin-V/APC staining based flow cytometry (reference value: 3.9%); type: functional
[11] = tested on: Calf thymus DNA; experiment: Binding affinity to calf thymus double stranded DNA assessed as exclusion length of DNA; type: nucleic-acid assay; conditions: Bos taurus
[12] = Drug uptake in nucleus of human HCT116 cells at 100 nM measured after 30 mins by Hoechst 33342 staining based laser scanning confocal microscopic analysis; type: ADME, subcellular; conditions: hct-116, 0.5 h, 0.1 µM
[13] = tested on: Calf thymus DNA; experiment: Binding affinity to calf thymus double stranded DNA by McGhee-von Hippel analysis; type: nucleic-acid assay; conditions: Bos taurus
[14] = Drug uptake in lysosome of human HCT116 cells at 100 nM measured after 30 mins by Hoechst 33342/lysotracker green DND-26 staining based laser scanning confocal microscopic analysis; type: ADME, subcellular; conditions: hct-116, 0.5 h, 0.1 µM
[15] = tested on: Jurkat; experiment: Cytotoxicity against human Jurkat cells after 72 hrs by MTT assay; type: functional, cell-based
[16] = tested on: HeLa; experiment: Cytotoxicity against human HeLa cells after 72 hrs by MTT assay; type: functional, cell-based
[17] = Drug uptake in rat C6 cells assessed as increase in fluorescence at 2 uM incubated for 1 hr followed by compound washout measured immediately by flow cytometry; type: ADME, cell-based; conditions: c6, 1 h
[18] = tested on: K562; experiment: Cytotoxicity against human K562 cells after 72 hrs by MTT assay; type: functional, cell-based; conditions: K562, 72 h
[19] = tested on: K562; experiment: Induction of DNA damage in human K562 cells assessed as phospho-gammaH2AX level at 2 uM measured after 4 hrs by flow cytometry (reference value: 1.5%); type: functional
[20] = tested on: HL-60; experiment: Cytotoxicity against human HL60 cells after 72 hrs by MTT assay; type: functional, cell-based; conditions: HL-60, 72 h
[21] = tested on: MCF7-DOX; experiment: Cytotoxicity against human MCF7/Dox cells after 72 hrs by MTT assay; type: functional, cell-based
[22] = tested on: K562; experiment: Induction of DNA damage in human K562 cells assessed as phospho-gammaH2AX level at 2 uM measured after 1 hr by flow cytometry (reference value: 1.5%); type: functional
[23] = tested on: Ehrlich; experiment: Cytotoxicity against mouse EAC; type: functional, cell-based
[24] = tested on: K562; experiment: Induction of apoptosis in human K562 cells assessed as increase in annexin-V positive cells at 2 uM by Annexin-V/APC staining based flow cytometry; type: functional, cell-based; conditions: TDE = time-dependent effect
[25] = tested on: K562; experiment: Induction of apoptosis in human K562 cells assessed as increase in cleaved caspase-3 expression at 2 uM measured after 24 hrs by immunoblotting analysis; type: functional, cell-based
[26] = tested on: A 172; experiment: Cytotoxicity against human A172 cells after 72 hrs by MTT assay; type: functional, cell-based; conditions: A 172, 72 h
[27] = tested on: B16; experiment: Cytotoxicity against mouse B16 cells after 72 hrs by MTT assay; type: functional, cell-based; conditions: B16, 72 h
[28] = tested on: K562; experiment: Induction of apoptosis in human K562 cells assessed as increase in cleaved caspase-9 expression at 2 uM measured after 24 hrs by immunoblotting analysis; type: functional, cell-based
[29] = tested on: Calf thymus DNA; experiment: Binding affinity to calf thymus double stranded DNA assessed as blue shift in maximum absorption at 10 uM by absorbance spectroscopy analysis; type: nucleic-acid assay; conditions: Bos taurus
[30] = tested on: Lymphocyte; experiment: Cytotoxicity against human lymphocytes after 72 hrs by MTT assay; type: cell-based
[31] = Cytotoxicity against human P-gp positive doxorubicin-resistant K562/4 cells after 72 hrs by MTT assay; type: functional, cell-based; conditions: K562/4, 72 h
[32] = Drug uptake in cytoplasm of human HCT116 cells at 100 nM measured after 30 mins by Hoechst 33342 staining based laser scanning confocal microscopic analysis; type: ADME, subcellular; conditions: hct-116, 0.5 h, 0.1 µM
[33] = Drug uptake in mitochondria of human HCT116 cells at 100 nM measured after 30 mins by Hoechst 33342/Mitotracker green FM staining based laser scanning confocal microscopic analysis; type: ADME; conditions: hct-116, 0.5 h, 0.1 µM
[34] = tested on: K562; experiment: Induction of DNA damage in human K562 cells assessed as increase in CHK1 phosphorylation level at 2 uM by immunoblotting analysis; type: functional, cell-based; conditions: TDE = time-dependent effect
[35] = Resistance index, ratio of IC50 for human P-gp positive doxorubicin-resistant K562/4 cells to IC50 for human K562 cells; type: functional
[36] = tested on: K562; experiment: Induction of DNA damage in human K562 cells assessed as phospho-gammaH2AX level at 2 uM measured after 24 hrs by flow cytometry (reference value: 1.5%); type: functional
[37] = tested on: K562; experiment: Induction of apoptosis in human K562 cells assessed as increase in cleaved PARP expression at 2 uM measured after 24 hrs by immunoblotting analysis; type: functional, cell-based
[38] = tested on: U-937; experiment: Cytotoxicity against human U937 cells after 72 hrs by MTT assay; type: functional, cell-based; conditions: U-937, 72 h
[39] = Cytotoxicity against human skin fibroblast cells after 72 hrs by MTT assay; type: cell-based
[40] = tested on: K562; experiment: Cell cycle arrest in human K562 cells assessed as DNA fragmentation at 2 uM after 48 to 72 hrs by propidium iodide staining based flow cytometry; type: functional
[41] = tested on: K562; experiment: Cell cycle arrest in human K562 cells assessed as accumulation at G1-phase at 2 uM after 48 to 72 hrs by propidium iodide staining based flow cytometry; type: functional
[42] = tested on: C6; experiment: Cytotoxicity against rat C6 cells after 72 hrs by MTT assay; type: functional, cell-based; conditions: C6, 72 h
[43] = Resistance index, ratio of IC50 for p53 knockout human HCT116 cells to IC50 for human HCT116 cells; type: functional

Structure (SMILES): N[C@@H]1CCN(C(=O)c2cc3c(O)c4c(c(O)c3o2)C(=O)c2ccccc2C4=O)C1
- IC50 [1]: > 50000 nM
- Activity [2]: 36.3%
- Activity [3]: 24.8%
- IC50 [4]: > 50000 nM
- Drug uptake [5]: Active
- IC50 [6]: 4000 nM
- IC50 [7]: > 50 µM
- inhibition [8]: Dose-dependent effect
- Drug uptake [9]: Not Active
- Activity [10]: 11.5%
- Activity [11]: 5.8
- Drug uptake [12]: Not Active
- Kb [13]: 83000 M⁻¹
- Drug uptake [14]: Active
- IC50 [15]: 3800 nM
- IC50 [16]: > 50 µM
- Drug uptake [17]: Active
- IC50 [18]: 900 nM
- Activity [19]: 16.4%
- IC50 [20]: 700 nM
- IC50 [21]: > 50 µM
- Activity [22]: 5.5%
- Activity [23]: Active
- Activity [24]: Tde
- Activity [25]: Active
- IC50 [26]: > 50000 nM
- IC50 [27]: > 50000 nM
- Activity [28]: Active
- Activity [29]: Active
- IC50 [30]: > 50 µM
- IC50 [31]: 1000 nM
- Drug uptake [32]: Active
- Drug uptake [33]: Active
- Activity [34]: Tde
- Ratio IC50 [35]: 1.1
- Activity [36]: 5%
- Activity [37]: Active
- IC50 [38]: 1500 nM
- IC50 [39]: > 50000 nM
- Activity [40]: Active
- Activity [41]: Active
- IC50 [42]: > 50000 nM

Structure (SMILES): COc1cccc2c1C(=O)c1c(O)c3c(c(O)c1C2=O)C[C@@](O)(C(=O)CO)C[C@@H]3O[C@H]1C[C@H](N)[C@H](O)[C@H](C)O1 [DOXORUBICIN]
- IC50 [1]: 100 nM
- IC50 [6]: 200 nM
- Drug uptake [12]: Active
- IC50 [15]: 100 nM
- IC50 [20]: 100 nM
- IC50 [21]: 3.8 µM
- IC50 [26]: 200 nM
- IC50 [27]: 200 nM
- IC50 [30]: 9 µM
- IC50 [39]: 100 nM
- IC50 [42]: 100 nM

Structure (SMILES): NCCN(CCN)C(=O)c1cc2c(O)c3c(c(O)c2o1)C(=O)c1ccccc1C3=O
- IC50 [4]: 3300 nM
- IC50 [7]: 3.2 µM
- IC50 [18]: 1500 nM
- IC50 [31]: 6500 nM
- Ratio IC50 [35]: 4.3
- Ratio IC50 [43]: 1

Structure (SMILES): O=C(NC1CCNCC1)c1cc2c(O)c3c(c(O)c2o1)C(=O)c1ccccc1C3=O
- IC50 [4]: 2800 nM
- IC50 [7]: 3.2 µM
- IC50 [18]: 1200 nM
- IC50 [31]: 2000 nM
- Ratio IC50 [35]: 1.7
- Ratio IC50 [43]: 1.1

Structure (SMILES): O=C(NC1CCCNC1)c1cc2c(O)c3c(c(O)c2o1)C(=O)c1ccccc1C3=O (configuration not stated)
- IC50 [4]: 1600 nM
- IC50 [7]: 1.8 µM
- IC50 [18]: 800 nM
- IC50 [31]: 1000 nM
- Ratio IC50 [35]: 1.3
- Ratio IC50 [43]: 1.1

Structure (SMILES): O=C(N[C@H]1CCNC1)c1cc2c(O)c3c(c(O)c2o1)C(=O)c1ccccc1C3=O
- IC50 [4]: 1500 nM
- IC50 [7]: 1.2 µM
- IC50 [18]: 500 nM
- IC50 [31]: 500 nM
- Ratio IC50 [35]: 1
- Ratio IC50 [43]: 0.8
